In article PMC7914639, “Antioxidant, Pancreatic Lipase Inhibitory, and Tyrosinase Inhibitory Activities of Extracts of the Invasive Plant Spartina anglica (Cord-Grass)” (Antioxidants, 2021):

Legend:
tyrosinase [1] = assay: Tyrosinase inhibition assay (L-DOPA oxidation); type: biochemical; conditions: at 100 μg/mL
Protocol: The tyrosinase inhibition assay was performed using a modification of the method reported by Nerya et al.. A portion of a sample (20 μL) in DMSO (100 μg/mL) was mixed with 50 μL of 0.1 M potassium phosphate buffer (pH 6.8), to which was added 30 μL of 33 unit/mL tyrosinase and 100 μL of 12 mM L-3,4-dihydroxyphenylalanine (L-DOPA). The solution was mixed gently and the initial absorbance (Ainitial) was recorded at 492 nm using a microplate reader. The reaction mixture was then incubated at 37 °C for 4 min and thereafter the final absorbance (Afinal) was measured at 492 nm. Kojic acid was used as the reference drug. The tyrosinase inhibition activity was calculated as a percentage using the Equation (3) Tyrosinase inhibition activity (%) = [1 − (Afinal/Ainitial)] × 100(3)

[2] = DPPH free radical-scavenging activity; conditions: for DPPH Radical Scavenging (%): Table S3; for IC50: read-out: Radical-Scavenging Activity Against DPPH IC50
Protocol: DPPH free radical-scavenging properties were evaluated using a previously reported method. Test sample (an extract, a fraction or a compound) in 100 μL of dimethyl sulfoxide (DMSO) (blank: 100 μL of DMSO solution) was added to 100 μL of an ethanolic solution of DPPH (60 μM) in the wells of a 96-well microplate. […] After the sample and the reagents had been mixed gently and incubated for 30 min at room temperature, the absorbance (A) at 540 nm was evaluated using a microplate reader (Model Infinite M200 PRO; Tecan, Austria). The free radical-scavenging activity was calculated as a percentage using the equation DPPH free radical-scavenging activity (%) = [1 − (Asample/Ablank)] × 100.(1)

[3] = target: T1, porcine pancreatic lipase (Sus scrofa, UniProt P00591); assay: Pancreatic lipase inhibition assay (p-NPB hydrolysis); type: biochemical; conditions: for inhibition at 10 µg/mL: 10 μg/mL; for inhibition at 25 µg/mL: 25 μg/mL; for inhibition at 50 µg/mL: 50 μg/mL
T1 construct: purchased Sigma-Aldrich (St. Louis, MO, USA) Type II
T1 sequence (P00591 1-450): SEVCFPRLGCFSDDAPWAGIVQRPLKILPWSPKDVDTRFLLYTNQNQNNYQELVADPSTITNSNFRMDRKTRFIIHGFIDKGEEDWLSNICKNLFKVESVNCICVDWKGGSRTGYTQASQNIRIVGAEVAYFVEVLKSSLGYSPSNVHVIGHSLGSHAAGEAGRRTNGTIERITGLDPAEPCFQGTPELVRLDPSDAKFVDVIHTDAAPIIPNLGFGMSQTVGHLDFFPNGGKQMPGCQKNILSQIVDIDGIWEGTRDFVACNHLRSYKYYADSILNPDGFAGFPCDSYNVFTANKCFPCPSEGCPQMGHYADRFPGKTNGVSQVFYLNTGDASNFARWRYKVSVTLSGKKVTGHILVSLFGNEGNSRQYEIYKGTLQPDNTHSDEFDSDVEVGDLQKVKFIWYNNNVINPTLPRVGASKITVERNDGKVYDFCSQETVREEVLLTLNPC
Protocol: Pancreatic lipase activity was measured using the method previously reported by Kim et al.. An enzyme buffer was prepared by the addition of 6 μL of porcine pancreatic lipase solution (Sigma-Aldrich, St. Louis, MO, USA) in a buffer (10 mM morpholinepropanesulfonic acid and 1 mM EDTA, pH 6.8) to Tris buffer (169 μL, 100 mM Tris-HCl, and 5 mM CaCl2, pH 7.0). […] The enzymatic reaction mixtures were incubated at 37 °C for 35 min. Pancreatic lipase activity was determined by measuring the hydrolysis of p-NPB to p-nitrophenol, with absorption being recorded at 405 nm using a microplate reader (Model Infinite M200 PRO; Tecan, Austria). Inhibition of lipase activity was expressed in terms of the percentage reduction in absorbance when porcine pancreatic lipase was incubated with the test compounds, and calculated using the following Equation (4) Inhibition (%) = 100 − [(B − b)/(A − a) × 100](4) where A is the lipase activity without inhibitor, a is the negative control without inhibitor, B is the lipase activity with inhibitor, and b is the negative control with inhibitor. The results are expressed as an average (n = 4).

[4] = ABTS radical-scavenging assay; conditions: for ABTS Radical Scavenging (%): Table S4; for IC50: read-out: Radical Scavenging Activity Against ABTS IC50
Protocol: ABTS radical-scavenging activity was measured using a modified method of Re et al.. The ABTS stock solution was diluted in water to a concentration of 7.4 mM. The ABTS radical was produced by mixing ABTS stock solution with 2.45 mM potassium persulfate and incubating in dark for 12 h at room temperature. The ABTS solution was diluted with ethanol to obtain an absorbance (Ablank) of 0.70 ± 0.02 at 415 nm. After adding 95 μL of diluted ABTS solution to 5 μL of the sample, the mixture was incubated at room temperature for 15 min in dark. The absorbance (Asample) at 415 nm was measured using a microplate reader (Model Infinite M200 PRO; Tecan, Austria). The blank was prepared using the same procedure with deionized water instead of the sample. The ABTS radical scavenging activity was calculated as a percentage using the Equation (2) ABTS radical scavenging activity (%) = [1 − (Asample/Ablank)] × 100(2)

tyrosinase [5] = target: tyrosinase; parameters: method as in doi:10.1007/s10600-014-1030-9; conditions: compound isolated from pollen of Calendula officinalis; cited from earlier work
[6] = test system: microphthalmia-associated transcription factor, tyrosinase, and tyrosinase-related proteins; parameters: method as in PMID 30146944; conditions: compound isolated from stem extract of Aurea helianthus; cited from earlier work
[7] = test system: human melanocyte tyrosinase; parameters: method as in PMID 16442796; conditions: at 100 μM; cited from earlier work
tyrosinase [8] = target: tyrosinase; parameters: method as in PMID 12720364, doi:10.1021/jf980226+; conditions: compound isolated from cumin; cited from earlier work

O=c1cc(CO)occ1O [Kojic acid]
Inhibition of L-DOPA Oxidation (%) (tyrosinase [1]): 98.6 ± 0.4 ^2%

COc1cc(/C=C/C(=O)O[C@@H]2C[C@@](OC(=O)/C=C/c3ccc(O)c(OC)c3)(C(=O)O)C[C@@H](O)[C@@H]2O)ccc1O [Compound 1, 1,3-di-O-trans-feruloyl-(−)-quinic acid]
Radical-Scavenging Activity Against DPPH IC50 [2]: 9.53 µg/mL | DPPH Radical Scavenging (%) ([2]; 1 μg/mL): 11.87 ± 0.82% | DPPH Radical Scavenging (%) ([2]; 2 μg/mL): 24.91 ± 0.78% | DPPH Radical Scavenging (%) ([2]; 5 μg/mL): 38.70 ± 2.24% | DPPH Radical Scavenging (%) ([2]; 10 μg/mL): 51.54 ± 1.30% | DPPH Radical Scavenging (%) ([2]; 25 μg/mL): 82.94 ± 0.56% | DPPH Radical Scavenging (%) ([2]; 50 μg/mL): 85.92 ± 1.27% | DPPH Radical Scavenging (%) ([2]; 100 μg/mL): 89.88 ± 1.25% | DPPH Radical Scavenging (%) ([2]; 250 μg/mL): 100.78 ± 1.46% | DPPH Radical Scavenging (%) ([2]; 500 μg/mL): 101.99 ± 0.37% | IC50 [2]: 17.5 µM | IC50 [3]: 242 µM | inhibition at 10 µg/mL ([3]; Table S5): 0.73 ± 0.01% | inhibition at 25 µg/mL ([3]; Table S5): 21.17 ± 0.01% | inhibition at 50 µg/mL ([3]; Table S5): 37.95 ± 0.02% | inhibition at 100 µg/mL ([3]; 100 μg/mL, Table S5): 41.11 ± 0.01% | Radical Scavenging Activity Against ABTS IC50 [4]: 16.37 µg/mL | ABTS Radical Scavenging (%) ([4]; 5 μg/mL): 27.97 ± 4.11% | ABTS Radical Scavenging (%) ([4]; 25 μg/mL): 66.31 ± 1.84% | ABTS Radical Scavenging (%) ([4]; 50 μg/mL): 66.38 ± 1.47% | IC50 [4]: 30.1 µM | IC50, activity of tyrosinase against diphenolase (tyrosinase [5]): 134.4 ± 4.8 µg/mL | IC50, activity of tyrosinase against monophenolase (tyrosinase [5]): 44.6 ± 1.5 µg/mL

CCCCCCCCCCC[C@@H](C[C@@H]1OC(=O)[C@H]1CCCCCC)OC(=O)[C@H](CC(C)C)NC=O [Orlistat, orlistat, reference compound]
inhibition at 0.1 µg/mL ([3]; 0.10 μg/mL, Table S5): 22.98 ± 0.01% | inhibition at 0.25 µg/mL ([3]; 0.25 μg/mL, Table S5): 27.63 ± 0.01% | inhibition at 0.5 µg/mL ([3]; 0.50 μg/mL, Table S5): 51.17 ± 0.01% | inhibition at 1 µg/mL ([3]; 1.00 μg/mL, Table S5): 54.53 ± 0.02% | inhibition at 100 µg/mL ([3]; at 100 μg/mL): 67.8%

O=C1O[C@H]([C@@H](O)CO)C(O)=C1O [L-Ascorbic acid, reference compound]
Radical-Scavenging Activity Against DPPH IC50 [2]: 1.17 µg/mL | DPPH Radical Scavenging (%) ([2]; 1 μg/mL): 45.09 ± 1.40% | DPPH Radical Scavenging (%) ([2]; 2 μg/mL): 87.36 ± 2.24% | DPPH Radical Scavenging (%) ([2]; 5 μg/mL): 97.41 ± 0.46% | DPPH Radical Scavenging (%) ([2]; 10 μg/mL): 98.01 ± 0.07% | DPPH Radical Scavenging (%) ([2]; 25 μg/mL): 97.50 ± 0.53% | DPPH Radical Scavenging (%) ([2]; 50 μg/mL): 97.28 ± 0.27% | DPPH Radical Scavenging (%) ([2]; 100 μg/mL): 97.03 ± 0.26% | DPPH Radical Scavenging (%) ([2]; 250 μg/mL): 98.14 ± 0.15% | Radical-Scavenging Activity Against DPPH (%) ([2]; at 100 μg/mL): 98.5 ± 0.2 ^1% | IC50 [2]: 6.64 µM | Radical Scavenging Activity Against ABTS IC50 [4]: 3.50 µg/mL | ABTS Radical Scavenging (%) ([4]; 5 μg/mL): 70.41 ±0.28% | ABTS Radical Scavenging (%) ([4]; 25 μg/mL): 99.75 ± 0.06% | ABTS Radical Scavenging (%) ([4]; 50 μg/mL): 99.77 ± 0.08% | Radical-Scavenging Activity Against ABTS (%) ([4]; at 100 μg/mL): 99.5 ± 0.3 ^1% | IC50 [4]: 19.9 µM

COc1cc(/C=C/C(=O)NCCc2ccc(O)cc2)ccc1O [Compound 3, N-trans-feruloyltyramine]
Radical-Scavenging Activity Against DPPH IC50 [2]: 4.67 µg/mL | DPPH Radical Scavenging (%) ([2]; 1 μg/mL): 0.86 ± 2.12% | DPPH Radical Scavenging (%) ([2]; 2 μg/mL): 14.90 ± 1.63% | DPPH Radical Scavenging (%) ([2]; 5 μg/mL): 54.29 ±0.30% | DPPH Radical Scavenging (%) ([2]; 10 μg/mL): 63.25 ± 0.83% | DPPH Radical Scavenging (%) ([2]; 25 μg/mL): 70.53 ± 1.74% | DPPH Radical Scavenging (%) ([2]; 50 μg/mL): 78.51 ± 0.06% | DPPH Radical Scavenging (%) ([2]; 100 μg/mL): 93.65 ± 1.70% | DPPH Radical Scavenging (%) ([2]; 250 μg/mL): 95.51 ± 0.10% | DPPH Radical Scavenging (%) ([2]; 500 μg/mL): 97.23 ± 0.33% | IC50 [2]: 14.9 µM | inhibition at 10 µg/mL ([3]; Table S5): 14.76 ± 0.01% | inhibition at 25 µg/mL ([3]; Table S5): 15.87 ± 0.02% | inhibition at 50 µg/mL ([3]; Table S5): 16.96 ± 0.02% | inhibition at 100 µg/mL ([3]; 100 μg/mL, Table S5): 17.28 ± 0.02% | effect on microphthalmia-associated transcription factor, tyrosinase, and tyrosinase-related proteins [6]: downregulate | Radical Scavenging Activity Against ABTS IC50 [4]: 8.19 µg/mL | ABTS Radical Scavenging (%) ([4]; 5 μg/mL): 44.18 ± 2.64% | ABTS Radical Scavenging (%) ([4]; 25 μg/mL): 78.71 ± 0.06% | ABTS Radical Scavenging (%) ([4]; 50 μg/mL): 82.19 ± 1.38% | IC50 [4]: 26.1 µM | inhibition of human melanocyte tyrosinase [7]: 49 ± 4%

O=Cc1ccc(O)cc1 [Compound 2, p-hydroxybenzaldehyde]
IC50 (tyrosinase [8]): 820 µM | type of tyrosinase inhibition (tyrosinase [8]): non-competitive | DPPH Radical Scavenging (%) ([2]; 1 μg/mL): 2.93 ± 2.39% | DPPH Radical Scavenging (%) ([2]; 2 μg/mL): 2.73 ± 2.15% | DPPH Radical Scavenging (%) ([2]; 5 μg/mL): 3.58 ± 1.79% | DPPH Radical Scavenging (%) ([2]; 10 μg/mL): 4.43 ± 0.36% | DPPH Radical Scavenging (%) ([2]; 25 μg/mL): 3.61 ± 1.11% | DPPH Radical Scavenging (%) ([2]; 50 μg/mL): 3.78 ± 1.40% | DPPH Radical Scavenging (%) ([2]; 100 μg/mL): 3.89 ±2.50% | DPPH Radical Scavenging (%) ([2]; 250 μg/mL): 7.28 ± 0.80% | DPPH Radical Scavenging (%) ([2]; 500 μg/mL): 8.66 ± 0.30% | IC50 [3]: 710 µM | inhibition at 10 µg/mL ([3]; Table S5): 15.07 ± 0.01% | inhibition at 25 µg/mL ([3]; Table S5): 36.64 ± 0.02% | inhibition at 50 µg/mL ([3]; Table S5): 42.68 ± 0.01% | inhibition at 100 µg/mL ([3]; 100 μg/mL, Table S5): 52.6% | ABTS Radical Scavenging (%) ([4]; 5 μg/mL): 2.03 ± 0.00% | ABTS Radical Scavenging (%) ([4]; 25 μg/mL): 3.97 ± 0.43% | ABTS Radical Scavenging (%) ([4]; 50 μg/mL): 8.71 ± 0.21%
